Experimental data reported in article PMC3171608 (Bioorganic & medicinal chemistry, 2011).

What was measured:
[1] = target: T1, centromeric protein E (CENP-E) (Homo sapiens, UniProt Q02224); experiment: Kinesin ATPase selectivity panel, CENP-E; type: biochemical; conditions: panel of mitotic kinesins; data not shown
T1 sequence (Q02224 6-329 limits assumed): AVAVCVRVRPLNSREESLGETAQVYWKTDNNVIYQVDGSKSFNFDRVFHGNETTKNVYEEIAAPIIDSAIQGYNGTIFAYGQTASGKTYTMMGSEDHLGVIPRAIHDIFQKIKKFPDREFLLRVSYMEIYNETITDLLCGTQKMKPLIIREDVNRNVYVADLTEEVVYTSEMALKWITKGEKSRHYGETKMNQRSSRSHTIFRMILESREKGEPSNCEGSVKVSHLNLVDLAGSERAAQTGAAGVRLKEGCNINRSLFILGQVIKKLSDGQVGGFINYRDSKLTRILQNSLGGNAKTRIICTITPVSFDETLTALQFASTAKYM

[2] = target: mammalian centromere-associated kinesin (MCAK) (Homo sapiens, UniProt Q99661); experiment: Kinesin ATPase selectivity panel, MCAK; type: biochemical; conditions: panel of mitotic kinesins; data not shown
[3] = tested on: chromokinesin; conditions: panel of mitotic kinesins; data not shown
[4] = tested on: HeLa cells; experiment: Phenotypic assay in cultured HeLa cells; type: cell-based, human; conditions: 1 μM compound
[5] = tested on: NCI60 tumor panel; experiment: NCI60 tumor panel growth inhibition; conditions: for GI50: read-out: Average GI50 in leukemia and colon tumor cell lines
[6] = tested on: other kinesin family members; conditions: cited from earlier work
[7] = tested on: M14; experiment: NCI60 growth inhibition, M14; type: cell-based; conditions: melanoma M14, GI50

mammalian centromere-associated kinesin (MCAK), sequence (Q99661 258-588 limits assumed): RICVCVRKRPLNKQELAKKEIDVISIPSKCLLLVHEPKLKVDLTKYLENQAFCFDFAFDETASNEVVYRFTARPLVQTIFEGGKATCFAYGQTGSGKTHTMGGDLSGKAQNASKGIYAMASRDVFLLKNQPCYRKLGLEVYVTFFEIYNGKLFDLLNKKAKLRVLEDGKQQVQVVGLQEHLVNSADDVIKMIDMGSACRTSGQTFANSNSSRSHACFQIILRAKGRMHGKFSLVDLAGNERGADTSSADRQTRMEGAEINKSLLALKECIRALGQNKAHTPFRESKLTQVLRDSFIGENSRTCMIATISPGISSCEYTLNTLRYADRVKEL

Inhibitory activity against CENP-E [1] | Inhibitory activity against MCAK [2] | SMILES | Inhibitory activity against chromokinesin [3] | Interphase microtubule morphology [4] | GI50 [5] | Activity against other kinesin family members [6] | Fold increase in activity over monastrol [7] | Average fold increase in potency over 1 ([5]; NCI60 panel GI50) | Average fold increase in potency over Monastrol ([5]; NCI60 panel GI50)
no measurable inhibition detected | no measurable inhibition detected | COc1ccc(C(SC[C@H](N)CO)(c2ccccc2)c2ccccc2)cc1 [Compound 5, (R)-2-amino-3-((4-methoxyphenyl)diphenylmethylthio)propan-1-ol] | no measurable inhibition detected | normal | ≤ 0.23 µM | – | – | – | –
– | – | N[C@@H](CSC(c1ccccc1)(c1ccccc1)c1ccccc1)C(=O)O [Compound 1, S-trityl-L-cysteine] | – | – | – | no activity | – | – | –
no measurable inhibition detected | no measurable inhibition detected | N[C@H](CO)CSC(c1ccccc1)(c1ccccc1)c1ccccc1 [Compound 4, (R)-2-amino-3-(tritylthio)propan-1-ol] | – | normal | – | – | – | – | –
– | – | COc1ccc(C(SCCN)(c2ccccc2)c2ccccc2)cc1 [Compound 7] | – | normal | ≤ 0.23 µM | – | 1200 fold | ~35 fold | ~143 fold
